According to ChEMBL document CHEMBL3507680, “University of Dundee, Gates Library screen for HepG2 cell viability”:

Assay: Human HepG2 cell viability assay in 384 well format
Assay type: toxicity, cell-based
Parameters: dose 125 nL, time 70.5 hour; cytotoxicity at 70.5 h: concentration not given beside the values
Conditions: HepG2 cells, read-out: Inhibition

Cc1noc(CCCC(=O)NCC2CCS(=O)(=O)C2)n1 (stereo unspecified)
cytotoxicity at 70.5 h: 1.41%

CCc1nc(CN2CCCN(C(=O)CCOC(C)C)CC2)cs1
cytotoxicity at 70.5 h: 0.154%

Cc1cc(CN2CCOC(CNc3cccnn3)C2)on1 (stereo unspecified)
cytotoxicity at 70.5 h: -0.746%

Cc1cccc(-c2ccc(C(=O)NCC(C)(C)C(N)=O)c(=O)[nH]2)c1
cytotoxicity at 70.5 h: -18.8%

COc1ccc(Cl)cc1NCC(=O)NCCc1ccccn1
cytotoxicity at 70.5 h: 5.95%

CC(C)C(C(=O)N1CCC(N(C)c2cccnn2)CC1)n1cncn1 (stereo unspecified)
cytotoxicity at 70.5 h: -12.6%

Cc1ccc(NC2CCN(C(=O)CC3CCCO3)CC2)nn1 (stereo unspecified)
cytotoxicity at 70.5 h: -11.8%

CC(C(=O)N1CCC(Nc2cccnn2)CC1)n1ccnc1 (stereo unspecified)
cytotoxicity at 70.5 h: -8.6%

Cc1nnc(CN2CCCC(c3cc(C(N)=O)[nH]n3)C2)o1 (stereo unspecified)
cytotoxicity at 70.5 h: -15.2%

c1ccc(CNC2CCc3ncnn3C2)nc1 (stereo unspecified)
cytotoxicity at 70.5 h: 6.6%

CC(NCc1c(C(C)C)nn(C)c1N1CCOCC1)C(N)=O (stereo unspecified)
cytotoxicity at 70.5 h: 15.3%

CC(C)c1nn(C)c(N2CCOCC2)c1CNCC(=O)N(C)C
cytotoxicity at 70.5 h: -6.07%

CCN(CC)C(=O)C(c1ccccc1)N1CCn2c(C)nnc2C1 (stereo unspecified)
cytotoxicity at 70.5 h: 2.24%

c1ccc(-n2ncc(CNC3CCc4ncnn4C3)n2)cc1 (stereo unspecified)
cytotoxicity at 70.5 h: -10.4%

c1ccc(-c2cnc(CNC3CCCN(c4cccnn4)C3)o2)cc1 (stereo unspecified)
cytotoxicity at 70.5 h: -4.5%

O=C(NCCOc1ccc2c(c1)CCC2)N1CCS(=O)(=O)CC1
cytotoxicity at 70.5 h: 23.8%

O=C(Cc1ccccc1Cl)N1CCCC(n2cncn2)C1 (stereo unspecified)
cytotoxicity at 70.5 h: -7.27%

Cc1ccc2oc(C(=O)N3CCCC(n4nc(C)cc4C)C3)cc2n1 (stereo unspecified)
cytotoxicity at 70.5 h: -2.12%

Cc1ccc(NC(=O)C2CSCN2C(=O)c2cc[nH]n2)c(C)c1 (stereo unspecified)
cytotoxicity at 70.5 h: -2.12%

Cc1cc(CNc2cc(Cl)ccc2Cl)no1
cytotoxicity at 70.5 h: -14.1%

CC(C)NC(=O)C(c1ccccc1)N1CCn2c(nnc2C2CC2)C1 (stereo unspecified)
cytotoxicity at 70.5 h: 2.95%

Cc1ccccc1OCCC(=O)N1CCCC(n2cncn2)C1 (stereo unspecified)
cytotoxicity at 70.5 h: -6.17%

O=C(COc1ccc2c(c1)CCC2)NS(=O)(=O)c1cncc(Br)c1
cytotoxicity at 70.5 h: -2.54%

Cc1ccoc1-c1nnc(CN2CCCC(Cn3cncn3)C2)o1 (stereo unspecified)
cytotoxicity at 70.5 h: -6.83%

CNC(=O)c1ccc(CN(C(=O)c2scnc2C)C2CC2)cc1
cytotoxicity at 70.5 h: 29.9%

CNC(=O)CCCNCc1c(C)nn(C)c1N(C)C
cytotoxicity at 70.5 h: -1.74%

COc1ccc(-c2nc(CN3CCc4c(ncn4C)C3)cs2)cc1
cytotoxicity at 70.5 h: 21.3%

CCN(CC1CCOC1)C(=O)Nc1ccc(OC)nc1 (stereo unspecified)
cytotoxicity at 70.5 h: 24.3%

CCOc1ccc(Cl)c(C(=O)N(C)C)n1
cytotoxicity at 70.5 h: -2.99%

Cc1ccc(CC(=O)N2CCc3nnc(N(C)C)cc3C2)cn1
cytotoxicity at 70.5 h: -3.16%

Cn1ccc(CN2CCCC2c2ccc3c(c2)OCCCO3)cc1=O (stereo unspecified)
cytotoxicity at 70.5 h: -12.3%

COc1ccc(CC(=O)N2CCc3nnc(N(C)C)cc3C2)cc1F
cytotoxicity at 70.5 h: -2.52%

CCC1c2ccsc2CCN1C(=O)NCCNc1ncccn1 (stereo unspecified)
cytotoxicity at 70.5 h: 0.287%

COc1cccc(-n2nnc(C(=O)N3CCNC(=O)C3)c2C)c1
cytotoxicity at 70.5 h: 28%

CN(C)c1cc(C(=O)N2CCN(S(C)(=O)=O)CC2)ccn1
cytotoxicity at 70.5 h: -1%

CCC1c2ccsc2CCN1C(=O)NCc1cc[nH]n1 (stereo unspecified)
cytotoxicity at 70.5 h: -1.24%

O=C(NCC1CCOC1)c1ccc(OCC(F)(F)F)nc1 (stereo unspecified)
cytotoxicity at 70.5 h: -5.4%

CCN(CC1CCOC1)C(=O)Nc1ccc(N2CCCC2)nc1 (stereo unspecified)
cytotoxicity at 70.5 h: -0.947%

CC(Nc1cccc(CN2CCOC2=O)c1)C(=O)Nc1ccccc1F (stereo unspecified)
cytotoxicity at 70.5 h: -7.83%

CC(C)N(Cc1cccc(F)c1)Cc1nc2c(cnn2C)c(=O)[nH]1
cytotoxicity at 70.5 h: 0.718%

CC(C)CCN(C)C(=O)c1nc(S(C)(=O)=O)n2ccccc12
cytotoxicity at 70.5 h: 4.51%

CNC(=O)C1CCC(NC(=O)N(C)Cc2c(C)noc2C)CC1 (stereo unspecified)
cytotoxicity at 70.5 h: 31.6%

Cc1noc(C)c1CN(C)C(=O)NC1CCN(C2CC2)CC1
cytotoxicity at 70.5 h: -2.65%

Cc1ccc(Cl)cc1N1CCC(CNC(=O)CC(F)(F)F)C1 (stereo unspecified)
cytotoxicity at 70.5 h: 1.39%

Cn1cc(C(=O)NC2CCN(Cc3ccn(C)c(=O)c3)CC2)cn1
cytotoxicity at 70.5 h: -14%

CC(C)(O)CN1CCN(C(=O)c2cc(Cl)cc3cccnc23)CC1
cytotoxicity at 70.5 h: -11.7%
